Test results from patent US20230218707A1, “NOVEL PEPTIDE INHIBITORS OF BETA-LACTAMASE AGAINST ANTIBIOTIC RESISTANCE” (priority 2020, published 2023).
Residues, ends and D or L forms follow the SMILES beside them.

What was measured:
[1] = test system: Escherichia coli ATCC 35218; assay type: cell-based; conditions: for enhancement of amoxicillin killing of ATCC35218: 32 μg/ml amoxicillin, FIG. 1 / FIG. 2A
Description: The activity of peptide inhibitors was assessed in Escherichia coli ATCC 35218 strain, which is a TEM-1 producing control E. coli strain commonly used in testing β-lactamase inhibitor activity, and which is resistant to amoxicillin by expressing TEM-1 β-lactamase. Peptide inhibitors that can inhibit TEM-1 function will lower minimum inhibitory concentration (MIC) of the amoxicillin against the resistant bacteria, which will be used to measure the potency of peptide inhibitors in bacteria. Bacterial susceptibility to amoxicillin and β-lactamase inhibitors were determined by broth microtiter dilution (BMD) according to the Clinical and Laboratory Standards Institute (CLSI) methodology. The tests were done using checkboard method with different amoxicillin concentrations (0-128 μg/ml). For the control group, clavulanic acid concentration was about 4 μg/ml.

NRS384 = assay: Serial passage resistance selection of NRS384; assay type: cell-based, Staphylococcus aureus
ATCC35218 cells = assay: Confocal microscopy of uptake of fluorescent labeled peptide; assay type: cell-based, E. coli; conditions: 5(6)-FAM label at N-terminus
Description: To confirm that the CPP enhanced the E. coli uptake of the peptide, the BP100-T61-25 peptide was labeled with 5(6)-FAM [5-(and-6)-Carboxyfluorescein at the N-terminus and incubated with ATCC35218 cells. […] It is noted that significant enhancement of amoxicillin potency against resistant bacteria can be achieved by linking CPPs to peptide inhibitor.

MRSA strain NRS384 = assay: Growth of MRSA strain NRS384 with peptide and amoxicillin; assay type: cell-based, Staphylococcus aureus
Description: In order to assess the potency of the peptides against MRSA, the peptides were tested on MRSA strain NRS384, which is widely used for studying MRSA infections.

MRSA strain (JE2) = assay: Growth of MRSA strain JE2 with peptide and ceftizoxime; assay type: cell-based, Staphylococcus aureus; conditions: JE2, 8 μg/ml ceftizoxime (FIG. 4)
Description: Some of the MRSA strains also developed resistance against cephalosporin, which are improved β-lactams developed to overcome some of the early penicillin resistance. BP100-T61-25's synergy with Ceftizoxime, which is a third generation cephalosporin on a MRSA strain (JE2) that is resistant to cephalosporin, was tested.

PBP2a = target: T1, PBP2a (Staphylococcus aureus, UniProt P07944); assay: In vitro binding assay, Bocillin FL binding to PBP2a (SDS-PAGE fluorescence); conditions: preliminary data, FIG. 3A
T1 construct: purchased RayBiotech, GA
From the text: More peptides were designed to target both PBP2a and β-lactamase which are predicted to enhance amoxicillin killing of MRSA. […] The top 6 best-scored peptides were synthesized. […] In the absence of peptide competitors, Bocillin FL bound to PBP2a and then gave rise to fluorescence signal when the protein was resolved on an SDS-PAGE gel.

TEM-1 = TEM-1 (Escherichia coli, UniProt P62593); conditions: literature peptide, Huang et al. 2003; cited from earlier work
TEM-1, sequence (P62593 24-286 limits assumed): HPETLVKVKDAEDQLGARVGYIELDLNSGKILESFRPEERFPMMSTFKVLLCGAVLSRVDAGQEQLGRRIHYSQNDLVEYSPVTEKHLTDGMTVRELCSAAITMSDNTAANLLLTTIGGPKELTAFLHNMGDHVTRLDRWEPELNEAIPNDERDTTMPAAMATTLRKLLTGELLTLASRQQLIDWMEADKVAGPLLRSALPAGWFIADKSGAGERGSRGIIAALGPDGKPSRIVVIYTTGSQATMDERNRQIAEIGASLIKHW

T1 sequence (P07944 whole entry): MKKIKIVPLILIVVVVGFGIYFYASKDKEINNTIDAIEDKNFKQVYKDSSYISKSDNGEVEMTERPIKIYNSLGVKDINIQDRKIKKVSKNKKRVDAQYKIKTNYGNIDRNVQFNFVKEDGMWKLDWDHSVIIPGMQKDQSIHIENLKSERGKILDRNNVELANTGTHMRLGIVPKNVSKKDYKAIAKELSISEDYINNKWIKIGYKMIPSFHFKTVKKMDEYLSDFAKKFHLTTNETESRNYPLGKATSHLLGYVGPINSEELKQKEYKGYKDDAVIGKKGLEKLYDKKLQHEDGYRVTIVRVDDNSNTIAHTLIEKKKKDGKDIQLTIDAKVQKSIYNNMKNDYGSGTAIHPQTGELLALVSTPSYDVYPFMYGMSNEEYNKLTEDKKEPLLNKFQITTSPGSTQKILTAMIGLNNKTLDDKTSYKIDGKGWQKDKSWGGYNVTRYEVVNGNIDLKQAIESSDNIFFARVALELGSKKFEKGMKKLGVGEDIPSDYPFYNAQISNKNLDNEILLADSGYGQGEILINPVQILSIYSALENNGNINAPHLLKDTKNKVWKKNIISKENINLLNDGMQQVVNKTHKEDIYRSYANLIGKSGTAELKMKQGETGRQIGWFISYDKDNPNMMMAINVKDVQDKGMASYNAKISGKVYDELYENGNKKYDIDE

Compound: CC[C@H](C)[C@H](NC(=O)[C@H](CCCCN)NC(=O)[C@H](CCCCN)NC(=O)[C@H](Cc1ccccc1)NC(=O)[C@H](CC(C)C)NC(=O)[C@H](CCCCN)NC(=O)[C@@H](N)CCCCN)C(=O)N[C@@H](CC(C)C)C(=O)N[C@@H](CCCCN)C(=O)N[C@@H](Cc1ccc(O)cc1)C(=O)N[C@@H](CC(C)C)C(=O)N[C@@H](CCCCN)C(=O)N[C@H](C(=O)N[C@@H](Cc1ccc(O)cc1)C(=O)N[C@@H](CC(C)C)C(=O)N[C@@H](C)C(=O)N[C@@H](CCC(N)=O)C(=O)N[C@@H](C)C(=O)N[C@@H](C)C(=O)N[C@@H](C)C(=O)N[C@H](C(=O)NCC(=O)O)[C@@H](C)O)[C@@H](C)O [BP100-T61-25] (H-KKLFKKILKYLKTYLAQAAATG-OH; N-terminus and C-terminus assumed)
- enhancement of amoxicillin killing of ATCC35218 [1]: Marked enhancement of amoxicillin (32 μg/ml) killing of bacteria
- peptide dose close to the MIC ([1]; ATCC 35218): ~8 µg/mL
- peptide concentration with strong inhibition of bacterial growth ([1]; ATCC35218, with 32 μg/ml amoxicillin): 8 to 16 µg/mL
- peptide concentration significantly inhibiting bacterial growth ([1]; ATCC35218, without amoxicillin): 16 µg/mL
- peptide concentration sufficient to inhibit bacterial growth after serial passage (NRS384; NRS384 passages 12-15, with 32 μg/ml amoxicillin): 16 µg/mL
- peptide internalization into E. coli cells (ATCC35218 cells): peptide internalization into E. coli cells was observed
- peptide concentration enhancing amoxicillin killing of MRSA (MRSA strain NRS384; NRS384, amoxicillin 32 μg/ml, FIG. 3C): 16 µg/mL
- peptide concentration significantly enhancing ceftizoxime's killing of JE2 (MRSA strain (JE2)): 8 µg/mL

Compound: CC(C)C[C@H](NC(=O)[C@H](Cc1ccc(O)cc1)NC(=O)[C@@H](NC(=O)[C@@H](N)CCCCN)[C@@H](C)O)C(=O)N[C@@H](C)C(=O)N[C@@H](CCC(N)=O)C(=O)N[C@@H](C)C(=O)N[C@@H](C)C(=O)N[C@@H](C)C(=O)N[C@H](C(=O)NCC(=O)O)[C@@H](C)O [Peptide T61-25]
- inhibition of Bocillin FL binding to PBP2a (PBP2a): inhibitory effect

Compound: CC(C)C[C@H](NC(=O)[C@H](C)NC(=O)[C@H](CCCNC(=N)N)NC(=O)[C@@H](NC(=O)[C@@H](NC(=O)[C@H](Cc1ccccc1)NC(=O)[C@@H](NC(=O)[C@@H](N)CCCCN)[C@@H](C)O)C(C)C)C(C)C)C(=O)N[C@@H](C)C(=O)N[C@@H](CO)C(=O)O [Peptide T63-07]
- inhibition of Bocillin FL binding to PBP2a (PBP2a): inhibitory effect

Compound: C[C@H](NC(=O)[C@H](Cc1ccccc1)NC(=O)[C@H](CC(=O)O)NC(=O)CNC(=O)[C@H](CO)NC(=O)CNC(=O)CN)C(=O)N[C@@H](CCCNC(=N)N)C(=O)N[C@@H](CO)C(=O)N[C@@H](CO)C(=O)N[C@@H](Cc1ccc(O)cc1)C(=O)O [Peptide T66-12]
- inhibition of Bocillin FL binding to PBP2a (PBP2a): inhibitory effect

Compound: CC1(C)S[C@@H]2[C@H](NC(=O)[C@H](N)c3ccc(O)cc3)C(=O)N2[C@H]1C(=O)O [amoxicillin, reference compound]
- MIC (MRSA strain NRS384; Staphylococcus aureus): > 256 µg/mL

Compound: O=C(O)c1cn(C2CC2)c2cc(N3CCNCC3)c(F)cc2c1=O [ciprofloxacin, reference compound]
- MIC (NRS384; Staphylococcus aureus, NRS384, read-out: bacterial MIC to ciprofloxacin after serial passage): > 256 µg/mL

Compound: CFFKDELKTYLAQAAATG [Peptide T63-2, cell wall-permeating peptide attached to peptide T61-25]
- enhancement of amoxicillin killing of ATCC35218 [1]: moderate effect at enhancing amoxicillin potency

Compound: KFFKFFKFFKKTYLAQAAATG [Peptide T63-1, cell wall-permeating peptide attached to peptide T61-25]
- enhancement of amoxicillin killing of ATCC35218 [1]: Significant enhancement of amoxicillin killing of bacteria
- enhancement of amoxicillin potency compared with clavulanate ([1]; ATCC35218, FIG. 1): enhanced amoxicillin potency significantly more than clavulanate

Compound: KTFVVRALASCKFFKFFKFF [Peptide T63-07-CPP, T63-07 conjugated with CPP]
- peptide concentration significantly enhancing amoxicillin inhibition of MRSA growth (MRSA strain NRS384; NRS384, amoxicillin 32 and 64 μg/ml, FIG. 3B): 32 µg/mL

Compound: RRGHYY-NH2
- Ki (TEM-1): 136 µM
